Data from patent publication US7993687B2, “Compositions and methods for management of diabetes” (priority 2006, dated 2011).

Legend:
Assay type in all cases: cell-based, rat
[1] = system: p42/44 MAPK (Thr202/Tyr204); test: Western blot of MAPK phosphorylation in H4IIE cells; conditions: for effect of the inhibitor on insulin- and BWE-stimulated phosphorylation of MAPK: preincubation with inhibitor, then insulin or BWE for 6 minutes; for p42/44 P-MAPK (Thr202/Tyr204) phosphorylation, stimulation (fold) relative to the control / phosphorylation of MAPK, stimulation (fold) relative to the control (Table 6): 6 min, one experiment
Procedure: Tissue culture media, antibiotics, fetal bovine serum (FBS) and Nunc tissue culture plates were purchased from Invitrogen Canada Inc. (Burlington, Ontario, Canada, L7P 1A1). Insulin (Sigma-Aldrich Canada Ltd., Oakville, Ontario, Canada, L6H 6J8) was dissolved in water and added directly to cells at a concentration of 250 nM unless otherwise indicated. The BWE was prepared and analyzed as described in Example 1. Two μL of the BWE were added directly to cells unless otherwise indicated. […] Myo-inositol (Sigma-Aldrich Canada Ltd.) and D-chiro-inositol (Industrial Research Ltd., Wellington, New Zealand) were dissolved in water at an equal concentration to the amounts present in the BWE (Table 3) and 2 μL of each solution (0.1% v/v final concentration) was added directly to cells.
(§1) Rat H4IIE hepatoma cells (American Type Culture Collection, CRL 1548) were cultured following the method disclosed by Yau et al., (1998, Eur. J. Biochem. 253: 91-1). The H4IIE cells were maintained in α-modified Eagle's media containing 10% FBS, 2 mM glutamine, 25 μg·mL^−1 streptomycin and 25 units·mL^−1 penicillin. Cells were plated and grown to 70% confluence. All cells were placed into serum-free medium for 72 h before addition of stimulating agents to ensure entry into a quiescent state.
(§2) Cultures of quiescent H4IIE cells or quiescent FAO cells were placed into 12-well culture dishes containing 2 mL serum-free medium, and then stimulated by direct addition of the inhibitors listed in Table 1 (volumes of additions were 10 μL or less) without replacing the medium. […] The cells in 12-well culture dishes were incubated with stimulating agents for 6 minutes and rinsed with phosphate buffered saline (PBS; 0.9% NaCl, 0.1 M Na3PO4, pH 7.1).
(§3) Cellular protein extracts were prepared by addition of 200 μL 2×SDS/gel loading buffer (0.125 M Tris pH 6.8, 2% SDS, 10% glycerol) to H4IIE cells in 12-well culture dishes. The samples were briefly sonicated, and protein content measured using the BCA protein assay kit. Aliquots containing equal amounts of protein were mixed with bromophenol blue (0.5% (w/v) final concentration) and 2-mercaptoethanol (5% (v/v) final concentration), heated at 95° C. and loaded onto 7.5% or 10% polyacrylamide gels. […] Primary antibodies (diluted 1:1000 in 3% (w/v) BSA) were incubated with the membrane for 60 min at 22° C. Membranes were subsequently washed four times and incubated for an additional 60 min at 1 8-22° C. in 1% (w/v) BSA-TBST with diluted HRP-coupled secondary antibody (1:10 000). HRP was detected using the ECL chemiluminescent system after the membranes had been washed four times.
Quantification of data obtained on film (Kodak X-omat) was accomplished with a GS800 imaging densitometer (Bio-Rad Laboratories) under nonsaturating conditions with local background subtraction. Although multiple exposures were acquired to ensure the absence of film saturation, the experimental figures typically show longer exposures selected specifically for visual presentation and not necessarily used for data analysis. Graphical data are presented as means±SE for a minimum of three replicate samples. […]

H4IIE cells = test: 3H-deoxyglucose uptake by H4IIE cells; conditions: H4IIE cells; pre-incubated with inhibitor, then insulin
Procedure: Tissue culture media, antibiotics, fetal bovine serum (FBS) and Nunc tissue culture plates were purchased from Gibco-BRL (division of Invitrogen Canada Inc.). Insulin (Sigma-Aldrich Canada Ltd.) was dissolved in water and added directly to cells at a final concentration of 10^−6 M. The buckwheat extract was prepared and analyzed as in Example 1. Two μL of the buckwheat extract were added directly to cells unless otherwise indicated. Myo-inositol (Sigma Aldrich Canada Ltd.) and D-chiro-inositol (Industrial Research Ltd.) were dissolved in water at an equal concentration to the amounts present in the BWE (Table 3) and 2 μL of each solution was added directly to cells.
as §1, with “as described in Example 3. Briefly,” for “following the method disclosed by Yau et al., (1998, Eur. J. Biochem. 253: 91-1). The H4IIE”, “50” for “25”, “50 μg·mL^−1” for “25 units·mL^−1”
^3H-deoxyglucose uptake was assayed using the method disclosed by Harrison et al. (1990, J. Biol. Chem. 265(10):5793-5801). Quiescent H4IIE cells, in 24-well culture dishes containing 1 mL serum-free medium, were washed three times with physiological salt solution (PSS) ([…], pH 7.4). Cells were placed into 0.5 mL PSS and pre-incubated with inhibitors for 10 minutes prior to the 20 minute stimulation with treatments (insulin, BWE, D-CI, MI). For all experiments, insulin was added at a concentration of 10^−6 M whereas 2 μL volumes of the BWE, D-CI, or MI (0.4% v/v final concentration) were added to cells unless otherwise indicated in figures. Sugar uptake was initiated by the addition of ^3H-deoxyglucose to a final assay concentration of 0.1 mM glucose (1 mCi/mL) and the cells were subsequently incubated for 5 minutes at 37° C. After two rapid washes with ice-cold PSS (0.5-1 mL/well), the cells were solubilized with 0.4 mL of 0.1% SDS, and ^3H was detected in 3 mL of EcoLume scintillant (MP Biomedicals Inc., Costa Mesa, Calif., USA, 92626).
Statistical significance between treatments was determined by one-way ANOVA and by Duncan's multiple range test for means testing (SAS v.9.1, SAS Institute Inc., Cary, N.C.). […] Data are expressed as the mean±SE.
Since insulin has the same effect, we compared the ability of BWE, insulin and two insulin-mimetic compounds (D-CI and MI) to stimulate glucose uptake by H4IIE hepatoma cells. […] Radio-labelled deoxyglucose was added to the medium and glucose uptake was determined by the detection of ^3H in cells.
Fractions (˜1.0 ml) from each solvent extraction were collected and assayed for their effects on MAPK activation as described in Example 3. The effects of selected fractions, alone or in combination with insulin, on the uptake of labelled glucose were assessed following the methods described in Example 4. […] The effects of the solvent fractions on H4IIE cells were assessed with 20-min exposure periods after which, sugar uptake was initiated by the addition of ^3H-deoxyglucose to a final assay concentration of 0.1 mM glucose (1 mCi/mL) and the cells were subsequently incubated for 5 minutes at 37° C. After two rapid washes with ice-cold PSS (0.5-1 mL/well), the cells were solubilized with 0.4 mL of 0.1% SDS, and ^3H was detected in 3 mL of EcoLume scintillant. […]

Raf (Ser259) = test: Western blot of Raf phosphorylation in H4IIE cells; conditions: 6 min, one experiment
Procedure: (§4) Tissue culture media, antibiotics, fetal bovine serum (FBS) and Nunc tissue culture plates were purchased from Invitrogen Canada Inc. (Burlington, Ontario, Canada, L7P 1A1). Insulin (Sigma-Aldrich Canada Ltd., Oakville, Ontario, Canada, L6H 6J8) was dissolved in water and added directly to cells at a concentration of 250 nM unless otherwise indicated. The BWE was prepared and analyzed as described in Example 1. Two μL of the BWE were added directly to cells unless otherwise indicated. This amount was chosen on the basis of equivalence to insulin. Myo-inositol (Sigma-Aldrich Canada Ltd.) and D-chiro-inositol (Industrial Research Ltd., Wellington, New Zealand) were dissolved in water at an equal concentration to the amounts present in the BWE (Table 3) and 2 μL of each solution (0.1% v/v final concentration) was added directly to cells.
as §1, §2, §3
(§5) Quantification of data obtained on film (Kodak X-omat) was accomplished with a GS800 imaging densitometer (Bio-Rad Laboratories) under nonsaturating conditions with local background subtraction. Although multiple exposures were acquired to ensure the absence of film saturation, the experimental figures typically show longer exposures selected specifically for visual presentation and not necessarily used for data analysis. Graphical data are presented as means±SE for a minimum of three replicate samples.

PDK-1 (Ser241) = test: Western blot of PDK-1 phosphorylation in H4IIE cells; conditions: 6 min, one experiment
Procedure: as §4, §1, §2, §3, §5

[2] = BWE-stimulated, 15-min preincubation with the inhibitor (None = BWE alone)
[3] = insulin-stimulated, 15-min preincubation with the inhibitor (None = insulin alone)
[4] = BWE treatment, 15-min preincubation with PKA/PKC inhibitor (None = BWE alone)
[5] = insulin treatment, 15-min preincubation with PKA/PKC inhibitor (None = insulin alone)

Compound	effect of the inhibitor on insulin- and BWE-stimulated phosphorylation of MAPK [1]	p42/44 P-MAPK (Thr202/Tyr204) phosphorylation, stimulation (fold) relative to the control [1, 2]	p42/44 P-MAPK (Thr202/Tyr204) phosphorylation, stimulation (fold) relative to the control [1, 3]	Raf (Ser259) phosphorylation, stimulation (fold) relative to the control (Raf (Ser259); [2])	Raf (Ser259) phosphorylation, stimulation (fold) relative to the control (Raf (Ser259); [3])	PDK-1 (Ser241) phosphorylation, stimulation (fold) relative to the control (PDK-1 (Ser241); [2])	PDK-1 (Ser241) phosphorylation, stimulation (fold) relative to the control (PDK-1 (Ser241); [3])	phosphorylation of MAPK, stimulation (fold) relative to the control (Table 6) [1, 4]	phosphorylation of MAPK, stimulation (fold) relative to the control (Table 6) [1, 5]	also measured
1-butanol	required for stimulation of MAPK by insulin and the BWE									effect of the inhibitor on insulin-stimulated glucose uptake (FIG. 23) (H4IIE cells): decreased insulin-stimulated glucose uptake although the effect was not significant
N#C/C(=C/c1ccc(O)c(O)c1)C(=O)NCc1ccccc1 [AG490]		12.9 fold	16.4 fold	0.16 fold	0.13 fold	0.89 fold	1.91 fold			
CC(C)(C)c1cc(C=C(C#N)C#N)cc(Br)c1O [AG1024]			16.74 fold		0.26 fold		2.30 fold			
Cn1c2ccccc2c2c3c(c4c5ccccc5n(CCC#N)c4c21)CNC3=O [Go6976]								4.32 fold	4.68 fold	
COc1ccc2c(c1)c1c3c(c4c5ccccc5n(C)c4c1n2CC(O)CN(C)C)C(=O)NC3=O (stereo not shown) [Go7874]								3.10 fold	2.60 fold	
O=c1cc(N2CCOCC2)oc2c(-c3ccccc3)cccc12 [LY294002]		13.1 fold	10.4 fold	0.08 fold	0.22 fold	0.61 fold	1.40 fold			
Cc1ccc(-c2nn(C(C)(C)C)c3ncnc(N)c23)cc1 [PP1]	required for stimulation of MAPK by the BWE only									
CC(=O)c1c(O)c(C)c(O)c(Cc2c(O)c3c(c(C(=O)/C=C/c4ccccc4)c2O)OC(C)(C)C=C3)c1O [Rottlerin]								3.85 fold	2.46 fold	
COc1ccc2c(c1)CC[C@@H]1[C@@H]2CC[C@]2(C)[C@@H](NCCCCCCN3C(=O)C=CC3=O)CC[C@@H]12 [U73]		8.6 fold	13.4 fold	0.12 fold	0.99 fold	0.49 fold	2.30 fold			
C[C@H]1CCC/C=C/[C@@H]2C[C@H](O)C[C@H]2[C@H](O)/C=C/C(=O)O1 [brefeldin, Brefeldin A]	not involved in this process									
